# Data reported in patent EP4692090A1 (Shanghai Fosun Pharmaceutical (Group) Co., Ltd., priority 2023, dated 2024).
# Where two headings read alike, the source gives them in different places.
# How the values were obtained:
# ATR kinase = molecular target: T1, ATR kinase (Homo sapiens, UniProt Q13535); assay: Inhibitory effect on ATR kinase activity (Caliper mobility shift, FAM-labeled RAD17 peptide substrate); type: biochemical
# T1 construct: purchased Eurofins 14-953
# Protocol: Test Example 1: Inhibitory effect of the compounds of the present disclosure on ATR kinase activity
# Test compounds to be tested were serially diluted with DMSO (maximum concentration 1 µM, 10 concentrations with 3-fold serial dilution) and added to the wells of a 384-well reaction plate (Corning, #4512). 1 nM ATR kinase (Eurofins, #14-953), 5 mM substrate (FAM-labeled RAD17 peptide, FAM-ASELPASQPQPFSAKKK), 5 mM ATP and the compounds with corresponding concentrations reacted in a kinase reaction solution (50 mM HEPES, pH 7.5; 0.0015% Brij-35; 10 mM MnCl2, total volume of 20 µL) at 28°C for 3 hours. The reaction was terminated by adding 30 µL of stop solution (100 mM HEPES, pH 7.5; 0.015% Brij-35; 0.2% Coating Reagent #3, PerkinElmer; 50 mM EDTA). The reaction plate was placed on a Caliper instrument (PerkinElmer) for testing. The relative inhibitory activity of each compound concentration group was calculated using the following formula: % Inhibition = (Conversion rate of the blank control group without compound added - Conversion rate of the test compound group) / (Conversion rate of the blank control group - […]). The IC50 values were calculated using GraphPad analysis and fitted. […] Table 1. Inhibitory effect (IC50) of compounds on ATR kinase activity.
# LoVo cells = assay: LoVo cell proliferation assay (CellTiter-Glo); type: cell-based; settings: maximum concentration 10 µM, 9 concentrations
# Protocol: Test Example 2: LoVo cell proliferation assay
# LoVo (ATCC, #CRL-229) cells in logarithmic growth phase were digested, counted, and plated into 96-well cell culture plates at 2,000 cells per well. The plates containing cells were incubated overnight at 37°C in a 5% CO2 incubator, and then test compounds with 3-fold gradient dilutions (maximum concentration: 10 µM, 9 concentrations) were added. DMSO was used as a blank control. After the LoVo cells containing the compounds or DMSO were incubated for an additional 5 days, an equal volume of CellTiter-Glo reagent (Promega, #7573) was added. After incubation at room temperature for 30 minutes, chemiluminescence was read using an Envision 2105 (PerkinElmer). The cell proliferation inhibition rate (%) for wells treated with each concentration of the compounds was calculated using the following formula. Then, with compound concentration as the horizontal axis and cell proliferation inhibition rate (%) as the vertical axis, GraphPad software was used to plot the data and determine the IC50 values of the test compounds. The results are shown in Table 2, wherein the IC50 ranges are defined as follows: A: ≤ 100 nM; 1000 nM ≥ B > 100 nM; C > 1000 nM.
# Cell proliferation inhibition (%) = (1 - luminescence value of compound-treated group / average luminescence value of DMSO blank control group) × 100. Table 2. Inhibitory effect of compounds on LoVo growth
# [1] = read-out: ATR kinase IC50, 1 nM ATR kinase (Eurofins), 28°C for 3 hours, maximum concentration 1 µM, 10 concentrations
# [2] = Homo sapiens, LoVo, 120 h, read-out: LoVo IC50 (nM), LoVo cells, 2,000 cells per well, 5 days incubation, CellTiter-Glo
# [3] = 1 nM ATR kinase (Eurofins), 28°C for 3 hours, maximum concentration 1 µM, 10 concentrations, read-out: ATR kinase IC50
# [4] = LoVo cells, 2,000 cells per well, 5 days incubation, CellTiter-Glo, read-out: LoVo IC50
# [5] = Homo sapiens, LoVo, 120 h, LoVo cells, 2,000 cells per well, 5 days incubation, CellTiter-Glo, read-out: LoVo IC50
# T1 sequence (Q13535 whole entry): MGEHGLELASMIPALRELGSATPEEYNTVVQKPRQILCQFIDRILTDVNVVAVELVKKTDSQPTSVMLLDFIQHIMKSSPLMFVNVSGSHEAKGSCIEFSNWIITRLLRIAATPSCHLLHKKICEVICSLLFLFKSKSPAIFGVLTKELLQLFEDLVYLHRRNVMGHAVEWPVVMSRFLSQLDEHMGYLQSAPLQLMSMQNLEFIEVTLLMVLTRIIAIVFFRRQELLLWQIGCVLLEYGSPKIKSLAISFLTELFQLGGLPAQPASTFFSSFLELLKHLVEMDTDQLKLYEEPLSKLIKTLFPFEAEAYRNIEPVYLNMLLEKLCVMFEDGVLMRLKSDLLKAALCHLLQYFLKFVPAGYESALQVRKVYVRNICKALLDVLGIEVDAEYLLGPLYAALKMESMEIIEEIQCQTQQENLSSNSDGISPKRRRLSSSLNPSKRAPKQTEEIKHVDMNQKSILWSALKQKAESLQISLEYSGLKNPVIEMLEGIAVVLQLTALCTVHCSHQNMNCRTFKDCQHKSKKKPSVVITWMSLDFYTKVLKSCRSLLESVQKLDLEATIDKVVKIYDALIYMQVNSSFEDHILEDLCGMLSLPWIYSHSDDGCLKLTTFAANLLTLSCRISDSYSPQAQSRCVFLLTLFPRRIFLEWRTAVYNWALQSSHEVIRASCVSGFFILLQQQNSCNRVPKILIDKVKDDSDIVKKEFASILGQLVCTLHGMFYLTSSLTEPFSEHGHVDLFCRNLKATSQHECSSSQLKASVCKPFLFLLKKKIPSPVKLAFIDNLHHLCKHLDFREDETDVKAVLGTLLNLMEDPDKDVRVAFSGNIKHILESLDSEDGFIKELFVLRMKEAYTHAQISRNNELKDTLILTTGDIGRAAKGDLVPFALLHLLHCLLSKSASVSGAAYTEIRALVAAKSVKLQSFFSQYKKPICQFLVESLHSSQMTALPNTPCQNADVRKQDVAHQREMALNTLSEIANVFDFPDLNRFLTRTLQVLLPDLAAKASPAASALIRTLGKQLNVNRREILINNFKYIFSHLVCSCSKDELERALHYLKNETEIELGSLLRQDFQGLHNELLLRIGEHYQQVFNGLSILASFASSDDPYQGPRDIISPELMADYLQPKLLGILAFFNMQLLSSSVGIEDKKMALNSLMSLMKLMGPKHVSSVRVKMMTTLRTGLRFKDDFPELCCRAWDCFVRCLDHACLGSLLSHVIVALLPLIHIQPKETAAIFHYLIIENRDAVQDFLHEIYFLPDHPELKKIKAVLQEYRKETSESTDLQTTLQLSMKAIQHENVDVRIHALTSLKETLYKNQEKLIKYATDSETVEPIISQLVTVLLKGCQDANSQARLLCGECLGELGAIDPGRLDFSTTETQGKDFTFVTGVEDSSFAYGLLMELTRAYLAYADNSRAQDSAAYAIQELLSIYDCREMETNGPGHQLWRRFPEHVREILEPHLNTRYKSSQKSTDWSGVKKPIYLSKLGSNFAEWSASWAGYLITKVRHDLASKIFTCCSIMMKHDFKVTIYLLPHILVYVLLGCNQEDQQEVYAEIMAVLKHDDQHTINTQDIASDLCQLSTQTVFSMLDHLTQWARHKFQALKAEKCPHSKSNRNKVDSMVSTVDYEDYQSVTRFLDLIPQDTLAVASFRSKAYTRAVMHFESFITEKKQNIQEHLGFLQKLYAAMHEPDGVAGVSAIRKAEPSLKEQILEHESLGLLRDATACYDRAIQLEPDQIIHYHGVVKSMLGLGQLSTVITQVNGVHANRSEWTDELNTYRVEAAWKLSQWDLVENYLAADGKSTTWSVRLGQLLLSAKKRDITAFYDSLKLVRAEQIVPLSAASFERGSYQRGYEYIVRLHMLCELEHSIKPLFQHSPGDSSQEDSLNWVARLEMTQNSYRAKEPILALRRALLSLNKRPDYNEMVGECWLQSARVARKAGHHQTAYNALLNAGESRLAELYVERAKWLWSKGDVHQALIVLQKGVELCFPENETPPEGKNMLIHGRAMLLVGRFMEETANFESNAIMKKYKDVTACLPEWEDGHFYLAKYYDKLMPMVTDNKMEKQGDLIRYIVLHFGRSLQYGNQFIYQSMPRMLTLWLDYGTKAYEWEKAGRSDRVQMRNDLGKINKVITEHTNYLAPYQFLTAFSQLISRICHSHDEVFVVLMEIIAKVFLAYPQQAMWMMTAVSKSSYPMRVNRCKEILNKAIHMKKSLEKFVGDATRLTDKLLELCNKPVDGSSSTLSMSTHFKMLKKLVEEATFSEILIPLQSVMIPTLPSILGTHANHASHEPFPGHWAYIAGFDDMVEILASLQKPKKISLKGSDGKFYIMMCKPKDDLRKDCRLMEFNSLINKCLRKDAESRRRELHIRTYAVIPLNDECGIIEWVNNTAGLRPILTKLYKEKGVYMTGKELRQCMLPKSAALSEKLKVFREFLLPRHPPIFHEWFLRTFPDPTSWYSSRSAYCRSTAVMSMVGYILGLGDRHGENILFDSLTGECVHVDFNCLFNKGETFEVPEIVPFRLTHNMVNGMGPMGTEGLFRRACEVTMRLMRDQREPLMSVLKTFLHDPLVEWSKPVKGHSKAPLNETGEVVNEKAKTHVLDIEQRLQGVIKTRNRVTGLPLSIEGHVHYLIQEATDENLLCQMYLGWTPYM
# T1 sequence (Q8WXE1 whole entry partner): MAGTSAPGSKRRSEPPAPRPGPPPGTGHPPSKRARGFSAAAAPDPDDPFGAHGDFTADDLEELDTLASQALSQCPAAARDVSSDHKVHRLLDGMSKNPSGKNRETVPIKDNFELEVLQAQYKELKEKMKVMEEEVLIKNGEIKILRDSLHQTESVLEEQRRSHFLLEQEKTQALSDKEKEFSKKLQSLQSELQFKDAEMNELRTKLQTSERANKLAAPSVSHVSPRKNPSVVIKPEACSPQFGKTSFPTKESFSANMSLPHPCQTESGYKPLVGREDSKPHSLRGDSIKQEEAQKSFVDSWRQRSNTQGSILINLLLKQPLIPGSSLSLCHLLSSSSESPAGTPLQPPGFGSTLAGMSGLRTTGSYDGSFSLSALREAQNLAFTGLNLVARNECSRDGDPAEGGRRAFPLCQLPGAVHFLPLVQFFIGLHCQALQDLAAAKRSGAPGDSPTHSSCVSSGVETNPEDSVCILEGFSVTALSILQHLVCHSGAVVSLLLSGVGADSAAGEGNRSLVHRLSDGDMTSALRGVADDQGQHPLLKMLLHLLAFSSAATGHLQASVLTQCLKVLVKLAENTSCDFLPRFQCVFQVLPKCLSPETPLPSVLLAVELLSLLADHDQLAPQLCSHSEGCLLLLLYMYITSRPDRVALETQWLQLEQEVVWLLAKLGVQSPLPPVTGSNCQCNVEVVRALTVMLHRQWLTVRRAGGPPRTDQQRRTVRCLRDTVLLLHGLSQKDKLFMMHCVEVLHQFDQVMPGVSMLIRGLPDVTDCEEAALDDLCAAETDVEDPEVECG
Structure (SMILES),IC50 (ATR kinase; [3]),IC50 (LoVo cells; [5]),other results
"C[C@@H]1COCCN1c1cc2c3c(n1)c(-c1cc[nH]n1)nn3CCC(=O)N2C1CC1C(F)(F)F (stereo partly drawn) [Compound 96, 4-((R)-3-methylmorpholinyl)-2-(1H-pyrazol-3-yl)-6-(2-(trifluoromethyl)cyclopropyl)-8,9-dihydro-1,3,6,9a-tetraazabenzo[cd]azulene-7(6H)-one]",–,–,IC50 (ATR kinase; [1]): 10 to 100 nM; IC50 (LoVo cells; [2]): 100 to 1000 nM
"CCS(=O)(=O)N1CCc2nn(-c3cc[nH]n3)c3nc(N4CCOC[C@H]4C)cc(c23)C1C (single isomer, unassigned) [Compound 48B]",< 10 nM,–,IC50 (LoVo cells; [4]): < 100 nM
CC1c2cc(N3CCOC[C@H]3C)nc3c2c(nn3-c2cc[nH]n2)CCN1S(=O)(=O)CCO (some centres unmarked) [Compound 34],–,–,IC50 (ATR kinase; [1]): < 10 nM; IC50 (LoVo cells; [2]): 100 to 1000 nM
"CC1c2cc(N3CCOC[C@H]3C)nc3c2c(nn3-c2cc[nH]n2)CCN1C1CC1 (single isomer, unassigned) [Compound 31B]",< 10 nM,–,IC50 (LoVo cells; [4]): < 100 nM
"C[C@@H]1COCCN1c1cc2c3c(n1)c(-c1cc[nH]n1)nn3CCC(=O)N2C1(C(F)F)CC1 [Compound 102, (R)-6-(1-(difluoromethyl)cyclopropyl)-4-(3-methylmorpholinyl)-2-(1H-pyrazol-3-yl)-8,9-dihydro-1,3,6,9a-tetraazabenzo[cd]azulene-7(6H)-one]",–,–,IC50 (ATR kinase; [1]): < 10 nM; IC50 (LoVo cells; [2]): < 100 nM
"C[C@@H]1COCCN1c1cc2c3c(nn(-c4cc[nH]n4)c3n1)CCN(S(C)(=O)=O)C2C1CC1 (single isomer, unassigned) [Compound 138A]",< 10 nM,100 to 1000 nM,–
"C[C@@H]1COCCN1c1cc2c3c(nn(-c4cc[nH]n4)c3n1)CCN(c1ccccc1)C2 [Compound 17, (R)-3-methyl-4-(7-phenyl-2-(1H-pyrazol-3-yl)-6,7,8,9-tetrahydro-2H-1,2,3,7-tetraazabenzo[cd]azulen-4-yl)morpholine]",10 to 100 nM,> 1000 nM,–
"CC1c2cc(N3CCOC[C@H]3C)nc3c2c(nn3-c2cc[nH]n2)CCN1S(C)(=O)=O (single isomer, unassigned) [Compound 39A]",< 10 nM,–,IC50 (LoVo cells; [4]): < 100 nM
"C[C@@H]1COCCN1c1cc2c3c(n1)c(-c1cc[nH]n1)nn3CCCN2C1CC1 [Compound 122, (R)-4-(6-cyclopropyl-2-(1H-pyrazol-3-yl)-6,7,8,9-tetrahydro-1,3,6,9a-tetraazabenzo[cd]azulen-4-yl)-3-methylmorpholine]",10 to 100 nM,100 to 1000 nM,–
"CC1c2cc(N3CCOC[C@H]3C)nc3c2c(nn3-c2cc[nH]n2)CCN1C(=O)C1(C#N)CC1 (single isomer, unassigned) [Compound 40A]",–,–,IC50 (ATR kinase; [1]): < 10 nM; IC50 (LoVo cells; [2]): 100 to 1000 nM
"CC1c2cc(N3CCOC[C@H]3C)nc3c2c(nn3-c2cc[nH]n2)CCN1C(=O)C1(C(F)(F)F)CC1 (single isomer, unassigned) [Compound 33B]",–,–,"IC50 (ATR kinase; [1]): 100 to 1000 nM; IC50 (LoVo cells; read-out: LoVo IC50, LoVo cells, 2,000 cells per well, 5 days incubation, CellTiter-Glo): 100 to 1000 nM"
"CC1COCC1N1CCc2nn(-c3cc[nH]n3)c3nc(N4CCOC[C@H]4C)cc(c23)C1 (stereo partly drawn) [Compound 12, (3R)-3-methyl-4-(7-(4-methyltetrahydrofuran-3-yl)-2-(1H-pyrazol-3-yl)-6,7,8,9-tetrahydro-2H-1 ,2,3,7-tetraazabenzo[cd]azulen-4-yl)morpholine]",10 to 100 nM,100 to 1000 nM,–
"C[C@@H]1COCCN1c1cc2c3c(n1)c(-c1cc[nH]n1)nn3CCC(=O)N2C1CCOC1 (stereo partly drawn) [Compound 90, 4-((R)-3-methylmorpholino)-2-(1H-pyrazol-3-yl)-6-(tetrahydrofuran-3-yl)-8,9-dihydro-1,3,6,9a-tetraazabenzo[cd]azulene-7(6H)-one]",10 to 100 nM,100 to 1000 nM,–
"C[C@@H]1COCCN1c1cc2c3c(nn(-c4cc[nH]n4)c3n1)CCOC21CCC1 [Compound 147, (R)-4-(3-Methylmorpholino)-2-(1H-pyrazol-3-yl)-8,9-dihydro-2H-7-oxa-1,2,3-triazaspiro[benzo[cd]azulene-6,1'-cyclobutane]-1(9a),2a,2a1(5a),4-tetraene]",–,–,"IC50 (ATR kinase; ATR kinase IC50 (nM), 1 nM ATR kinase (Eurofins), 28°C for 3 hours, maximum concentration 1 µM, 10 concentrations): < 10 nM; IC50 (LoVo cells; [2]): < 100 nM"
"C[C@@H]1COCCN1c1cc2c3c(n1)c(-c1cc[nH]n1)nn3CCC(=O)N2CC#CC(C)(C)O [Compound 103, (R)-6-(4-hydroxy-4-methylpent-2-yn-1-yl)-4-(3-methylmorpholinyl)-2-(1H-pyrazol-3-yl)-8,9-dihydro-1,3,6,9a-tetraazabenzo[cd]azulene-7(6H)-one]",–,–,IC50 (ATR kinase; [1]): 10 to 100 nM; IC50 (LoVo cells; [2]): 100 to 1000 nM
"CC1c2cc(N3CCOC[C@H]3C)nc3c2c(nn3-c2cc[nH]n2)CCN1C (single isomer, unassigned) [Compound 35A]",< 10 nM,< 100 nM,–
CC(C)N1CCc2nn(-c3cc[nH]n3)c3nc(N4CCOC[C@H]4C)cc(c23)C1 [Compound 2],10 to 100 nM,100 to 1000 nM,–
"C[C@@H]1COCCN1c1cc2c3c(nn(-c4cc[nH]n4)c3n1)CCN(C1CC1)C2=O [Compound 132, (R)-7-cyclopropyl-4-(3-methylmorpholino)-2-(1H-pyrazol-3-yl)-2,7,8,9-tetrahydro-6H-1,2,3,7-tetraazabenzo[cd]azulene-6-one]",10 to 100 nM,< 100 nM,–
"C[C@@H]1COCCN1c1cc2c3c(n1)c(-c1cc[nH]n1)nn3CCN(C(=O)C1CC1)C2 [Compound 54, (R)-cyclopropyl(4-(3-methylmorpholino)-2-(1H-pyrazol-3-yl)-8,9-dihydro-1,3,7,9a-tetraazabenzo[cd]azulene-7(6H)-yl)methanone]",10 to 100 nM,100 to 1000 nM,–
"C[C@@H]1COCCN1c1cc2c3c(nn(-c4cc[nH]n4)c3n1)CCN(C1CC(F)(F)C1)C2 [Compound 7, (R)-4-(7-(3,3-difluorocyclobutyl)-2-(1H-pyrazol-3-yl)-6,7,8,9-tetrahydro-2H-1,2,3,7-tetraazabenzo[cd]azulen-4-yl)-3-methylmorpholine]",10 to 100 nM,100 to 1000 nM,–
"CC1c2cc(N3CCOC[C@H]3C)nc3c2c(nn3-c2cc[nH]n2)CCN1C1COC1 (single isomer, unassigned) [Compound 32A]",10 to 100 nM,100 to 1000 nM,–
"C[C@@H]1COCCN1c1cc2c3c(nn(-c4cc[nH]n4)c3n1)CCN(C1CCOCC1)C2 [Compound 3, (R)-4-(2-(1H-pyrazol-3-yl)-7-(tetrahydro-2H-pyran-4-yl)-6,7,8,9-tetrahydro-2H-1,2,3,7-tetraazabenzo[cd]azulen-4-yl)-3-methylmorpholine]",10 to 100 nM,100 to 1000 nM,–
C[C@@H]1COCCN1c1cc2c3c(nn(-c4cc[nH]n4)c3n1)CCN(C1CC3(CC3)C1)C2 [Compound 11],10 to 100 nM,100 to 1000 nM,–
"CC1c2cc(N3CCOC[C@H]3C)nc3c2c(nn3-c2cc[nH]n2)CCN1S(=O)(=O)C1CC1F (single isomer, unassigned) [Compound 151A]",< 10 nM,< 100 nM,–
"C[C@@H]1COCCN1c1cc2c3c(nn(-c4cc[nH]n4)c3n1)CCN(S(C)(=O)=O)C2C1CC1 (single isomer, unassigned) [Compound 138B]",< 10 nM,–,IC50 (LoVo cells; [4]): < 100 nM
"C[C@@H]1COCCN1c1cc2c3c(nn(-c4cc[nH]n4)c3n1)CCN(C)C2C1CC1 (single isomer, unassigned) [Compound 142B]",< 10 nM,–,IC50 (LoVo cells; [4]): < 100 nM
"CCS(=O)(=O)N1CCc2nn(-c3cc[nH]n3)c3nc(N4CCOC[C@H]4C)cc(c23)C1C (single isomer, unassigned) [Compound 48A]",10 to 100 nM,100 to 1000 nM,–
"C[C@@H]1COCCN1c1cc2c3c(n1)c(-c1cc[nH]n1)nn3CCC(=O)N2Cc1cnn(C)c1 [Compound 99, (R)-6-((1-methyl-1H-pyrazol-4-yl)methyl)-4-(3-methylmorpholinyl)-2-(1H-pyrazol-3-yl)-8,9-dihydro-1,3,6,9a-tetraazabenzo[cd]azulene-7(6H)-one]",–,–,IC50 (ATR kinase; [1]): 10 to 100 nM; IC50 (LoVo cells; [2]): 100 to 1000 nM
